Holding throughout (type): cell-based
For experiment [1], the system named is P. falc. Put plainly: Biological activity EC50, P. falc (strain not given). The settings on record: Plasmodium falciparum; Target (Cell Line): P. falc.
Experiment [2] relates to P. falc W2. Put plainly: Biological activity EC50, P. falc W2. Particulars: Plasmodium falciparum; Target (Cell Line): P. falc W2; read-out: Activity EC50.
Experiment [3] deals with HeLa. Put plainly: Biological activity EC50, HeLa. Particulars: Homo sapiens; Target (Cell Line): HeLa.
Experiment [4] deals with IMR90. Put plainly: Biological activity EC50, IMR90. Particulars: Homo sapiens, IMR-90; Target (Cell Line): IMR90.
Experiment [5] deals with P. falc DD2. Put plainly: Biological activity EC50, P. falc DD2. Particulars: Plasmodium falciparum; Target (Cell Line): P. falc DD2.

A value given as a limit tells only on which side of the number the result lay.

Broadly, the EC50 is the concentration needed to bring the measured effect to its halfway point.

Consider `O=C(Nc1cc(Cl)ccc1Cl)O[C@@H]1C[C@H](OC(=O)Nc2cc(Cl)ccc2Cl)CC2(C1)OOC1(O2)C2CC3CC(C2)CC1C3` (relative stereo) [Example 4, (3″R*,5″S*)-5″-{[(2,5-dichlorophenyl)carbamoyl]oxy}dispiro[adamantane-2,2′-[1,3,5]trioxolane-4′,1″-cyclohexane]-3″-yl N-(2,5-dichlorophenyl)carbamate], for which, in experiment [1], the EC50 stood at 0.147 µM.
`O=C1CCCC2(C1)OOC1(O2)C2CC3CC(C2)CC1C3` (centres unmarked) [Cmpd 2b, dispiro[adamantane-2,2′-[1,3,5]trioxolane-4′,1″-cyclohexane]-3″-one] displayed an EC50 in experiment [1] of 0.408 µM.
On the same count and under the same terms, next, `O=C(Nc1cc(Cl)ccc1Cl)OC1CCCC2(C1)OOC1(O2)C2CC3CC(C2)CC1C3` (centres unmarked) [Example 1, dispiro[adamantane-2,2′-[1,3,5]trioxolane-4′,1″-cyclohexane]-3″-yl N-(2,5-dichlorophenyl)carbamate]: 0.0143 µM.
Consider `C=CC1(OC(=O)Nc2cc(Cl)ccc2Cl)CCCC2(C1)OOC1(O2)C2CC3CC(C2)CC1C3` (centres unmarked) [Example 2, 3″-ethenyldispiro[adamantane-2,2′-[1,3,5]trioxolane-4′,1′-cyclohexane]-3″-yl N-(2,5-dichlorophenyl)carbamate], for which, in experiment [1], the response was half-maximal at 0.0107 µM (EC50).
`CC(C)(C)[C@H]1C[C@H](OC(=O)Nc2cc(Cl)ccc2Cl)CC2(C1)OOC1(O2)C2CC3CC(C2)CC1C3` (some centres unmarked) [Example 3, (3″S,5″S)-5″-tert-butyldispiro[adamantane-2,2′-trioxolane-4′,1″-cyclohexane]-3″-yl N-(2,5-dichlorophenyl)carbamate] yielded an EC50 in experiment [1] of 0.0657 µM.
With `CCNC(=O)OC1CCCC2(C1)OOC1(O2)C2CC3CC(C2)CC1C3` (centres unmarked) [Example 5, dispiro[adamantane-2,2′-[1,3,5]trioxolane-4′,1″-cyclohexane]-3″-yl N-ethylcarbamate], the EC50 in experiment [2] turned out to be 0.0059 µM.
Same read-out and setting: the figure for `O=C(OC1CCCC2(C1)OOC1(O2)C2CC3CC(C2)CC1C3)N1CCCCC1[C@@H](O)c1cc(C(F)(F)F)nc2c(C(F)(F)F)cccc12` (stereo partly drawn) [Example 6, dispiro[adamantane-2,2′-[1,3,5]trioxolane-4′,1″-cyclohexane]-3″-v 2-[(S)-[2,8-bis(trifluoromethyl)quinolin-4-yl](hydroxy)methyl]piperidine-1-carboxylate] is 0.0171 µM.
In the case of `COc1ccc(/C=C/C(=O)N2CC(CCl)c3c2cc(NC(=O)OC2CCCC4(C2)OCC2(O4)C4CC5CC(C4)CC2C5)c2ccccc32)cc1` (centres unmarked) [Example 15, dispiro[adamantane-2,4′-[1,3]dioxolane-2′,1″-cyclohexane]-3″-yl N-[1-(chloromethyl)-3-[(2E)-3-(4-methoxyphenyl)prop-2-enoyl]-1H,2H,3H-benzo[e]indol-5-yl]carbamate], the EC50 in experiment [2] is 0.041 µM; in experiment [3], more than 1 µM; in experiment [4], more than 1 µM.
Take `CN(C)c1cccc2c(S(=O)(=O)NC34CC5CC(C3)C3(OOC6(CCCCC6)O3)C(C5)C4)cccc12` (centres unmarked) [Example 20, 5-(dimethylamino)-N-{dispiro[adamantane-2,2′-trioxolane-4′,1″-cyclohexane]-7-yl}naphthalene-1-sulfonamide]: a half-maximal response in experiment [5] (EC50) required 0.0114 µM.
On the same count and under the same terms, the figure for `CN(C)c1cccc2c(S(=O)(=O)N3CCC4(CC3)OOC3(O4)C4CC5CC(C4)CC3C5)cccc12` (centres unmarked) [Example 21, 5-({dispiro[adamantane-2,2′-[1,3,5]trioxolane-4′,4″-piperidine]-1″-yl}sulfonyl)-N,N-dimethylnaphthalen-1-amine] is 0.0542 µM.
Consider `CC(C)(N)CNC(=O)OC1CCCC2(C1)OOC1(O2)C2CC3CC(C2)CC1C3` (centres unmarked) [Example 23, Dispiro[adamantane-2,2′-[1,3,5]trioxolane-4′,1″-cyclohexane]-3″-yl N-(2-amino-2-methylpropyl)carbamate], for which the EC50 in experiment [2] is 0.005 µM.
Same read-out and setting: next, `COC1CCC[C@]2(C1)OOC1(O2)C2CC3CC(C2)CC1C3` (some centres unmarked) [Example 25]: 0.027 µM.
